# Assay results from paper PMC2186054 (The Journal of Experimental Medicine, 1981).
# “And” between values parts separate entries of the source, which are not always exact repeats. Equal values may be shown once.
# Assays:
# [1] = tested on: myeloma protein CAL20 TEPC1035; experiment: Quantitative precipitin inhibition assay, CAL20 TEPC1035 with dextran B1498S; type: binding, murine; conditions: for Relative potency: Table II, maltose = 1.0
# [2] = tested on: myeloma protein CAL20 TEPC1035; experiment: Quantitative precipitin assay with CAL20 TEPC1035; type: binding, murine; conditions: Table I; 6.5 µg antibody N, total vol 400 µl
# [3] = target: T1, myeloma protein J558 (Mus musculus, UniProt P01724+P01757); experiment: Quantitative precipitin assay with J558; type: binding, BALB/c mouse; conditions: Table I; total vol 400 µl
# [4] = tested on: serum 895 (anti-panosyl-α(1→4)DGlc); experiment: Quantitative precipitin assay with antiserum 895; type: binding, Rabbit; conditions: 80 µl undiluted serum, total vol 400 µl
# [5] = target: T2, myeloma protein MOPC104E (Mus musculus, UniProt P01724+P01756); experiment: Quantitative precipitin inhibition assay, MOPC104E; type: binding, BALB/c mouse; conditions: 25 µg dextran B1498S
# [6] = target: T1, myeloma protein J558; experiment: Quantitative precipitin inhibition assay, J558; type: binding, BALB/c mouse; conditions: at 0.99 µmol; 15 µg dextran B1498S
# [7] = tested on: myeloma protein UPC102; experiment: Quantitative precipitin inhibition assay, UPC102; type: binding, BALB/c mouse; conditions: at 0.52 µmol; 15 µg dextran B1355S
# [8] = target: T2, myeloma protein MOPC104E; conditions: cited from earlier work
# [9] = inhibition of CAL20 TEPC1035-dextran B1498S precipitation
# T2 sequence (P01756 whole entry): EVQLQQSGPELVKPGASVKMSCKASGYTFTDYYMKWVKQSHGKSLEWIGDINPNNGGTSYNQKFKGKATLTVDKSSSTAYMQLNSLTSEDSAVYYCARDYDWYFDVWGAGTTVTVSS
# T2 sequence (P01724 20-129): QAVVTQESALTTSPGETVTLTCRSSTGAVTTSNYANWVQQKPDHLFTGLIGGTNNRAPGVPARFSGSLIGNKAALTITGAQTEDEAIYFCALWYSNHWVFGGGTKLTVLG
# T1 sequence (P01757 whole entry): as the sequence (P01756 whole entry) above, with Y100R, D101Y counted along it
# T1 sequence (P01724 20-129): as the sequence (P01724 20-129) above
molecule,measurement,setting,value
maltohexaose,Relative potency,[1],2.4
OC[C@H]1O[C@H](OC[C@H]2O[C@H](O[C@H]3[C@H](O)[C@@H](O)[C@@H](O[C@H]4[C@H](O)[C@@H](O)C(O)O[C@@H]4CO)O[C@@H]3CO)[C@H](O)[C@@H](O)[C@@H]2O)[C@H](O)[C@@H](O)[C@@H]1O (stereo partly shown) [DGlcα(1→6)DGlcα(1→4)DGlcα(1→4)DGlc],Relative potency,[1],2.4
same,times more potent than the trisaccharide DGlcα(1→6)DGlcα(1→3)DGlc,[1]; [9],1.5 times
"OC[C@H]1O[C@H](O[C@H]2[C@H](O)[C@@H](O)[C@@H](O[C@H]3[C@H](O)[C@@H](O)[C@@H](O[C@H]4[C@H](O)[C@@H](O)C(O)O[C@@H]4CO)O[C@@H]3CO)O[C@@H]2CO)[C@H](O)[C@@H](O)[C@@H]1O (stereo partly shown) [Maltotetraose, maltotetraose]",Relative potency,[1],1.0
"OC[C@H]1O[C@H](O[C@H]2C(O)O[C@H](CO)[C@@H](O)[C@@H]2O)[C@H](O)[C@@H](O)[C@@H]1O (stereo partly shown) [Kojibiose, DGlcα(1→2)DGlc]",inhibition of precipitation,[1]; at 0.98 µmol,20%
"OC[C@H]1O[C@H](O[C@@H]2[C@@H](O)[C@@H](O[C@H]3[C@H](O)[C@@H](CO)OC(O)[C@@H]3O)O[C@H](CO)[C@H]2O)[C@H](O)[C@@H](O)[C@@H]1O (stereo partly shown) [Nigerotriose, nigerotriose]",Relative potency,[1],0.29
"OC[C@H]1O[C@H](OC[C@H]2O[C@H](OC[C@H]3O[C@H](OC[C@H]4O[C@H](OC[C@H]5O[C@H](OC[C@H]6OC(O)[C@H](O)[C@@H](O)[C@@H]6O)[C@H](O)[C@@H](O)[C@@H]5O)[C@H](O)[C@@H](O)[C@@H]4O)[C@H](O)[C@@H](O)[C@@H]3O)[C@H](O)[C@@H](O)[C@@H]2O)[C@H](O)[C@@H](O)[C@@H]1O (stereo partly shown) [Isomaltohexaose, isomaltohexaose]",inhibition of precipitation,[1]; at 0.41 µmol,20%
"OC[C@H]1O[C@H](OC[C@H]2O[C@H](OC[C@H]3O[C@H](OC[C@H]4O[C@H](OC[C@H]5OC(O)[C@H](O)[C@@H](O)[C@@H]5O)[C@H](O)[C@@H](O)[C@@H]4O)[C@H](O)[C@@H](O)[C@@H]3O)[C@H](O)[C@@H](O)[C@@H]2O)[C@H](O)[C@@H](O)[C@@H]1O (stereo partly shown) [Isomaltopentaose, isomaltopentaose]",inhibition of precipitation,[1]; at 0.5 µmol,44%
same,inhibition of precipitation,[1]; at 0.59 µmol (Table II),44%
34-a-u-glucosylisomaltohexaose [I/5],inhibition of precipitation,[1]; at 0.15 µmol,47%
"OC[C@H]1O[C@H](O[C@H]2[C@H](O)[C@@H](O)C(O)O[C@@H]2CO)[C@H](O)[C@@H](O)[C@@H]1O (mixture of isomers) [Maltose, maltose]",Relative potency,[1],1.0
same,activity relative to methyl α-D-glucoside,[1]; [9],three times
"OC[C@H]1O[C@H](OC[C@H]2OC(O)[C@H](O)[C@@H](O)[C@@H]2O)[C@H](O)[C@@H](O)[C@@H]1O (stereo partly shown) [Isomaltose, isomaltose]",Relative potency,[1],0.19
same,activity relative to methyl α-D-glucoside,[1]; [9],one-half
"OC[C@H]1O[C@H](O[C@H]2O[C@H](CO)[C@@H](O)[C@H](O)[C@H]2O)[C@H](O)[C@@H](O)[C@@H]1O [Trehalose, DGlcα(1→1)DGlc]",inhibition of precipitation,[1]; at 1.1 µmol,No inhibition
Glycogen,Precipitating power with CAL20 TEPC1035,[2],-
same,Precipitating power with J558,[3],-
same,Precipitation with serum 895,[4],precipitated poorly
"CC(=O)OC[C@@H](O)[C@@H](O)[C@H](O)[C@@H](O)C=O [6-O-acetyl-glucose, 6-O-acetyl-glucose]",Relative potency,[1],0.14
"OC[C@H]1O[C@H](OC[C@H]2O[C@H](OC[C@H]3OC(O)[C@H](O)[C@@H](O)[C@@H]3O)[C@H](O)[C@@H](O)[C@@H]2O)[C@H](O)[C@@H](O)[C@@H]1O (stereo partly shown) [Isomaltotriose, isomaltotriose]",Relative potency,[1],0.20
Gentiobiose,Relative potency,[1],0.12
maltopentaose,Relative potency,[1],1.41
"OC[C@H]1O[C@H](O[C@@H]2[C@@H](O)[C@@H](O[C@@H]3[C@@H](O)[C@@H](O[C@H]4[C@H](O)[C@@H](CO)OC(O)[C@@H]4O)O[C@H](CO)[C@H]3O)O[C@H](CO)[C@H]2O)[C@H](O)[C@@H](O)[C@@H]1O (stereo partly shown) [Nigerotetraose, nigerotetraose]",Relative potency,[1],0.29
same,inhibition of precipitation of MOPC104E,[5]; at 0.82 µmol,75%
"O=C[C@H](O)[C@@H](O)[C@H](O[C@@H]1O[C@H](CO)[C@@H](O)[C@H](O)[C@H]1O)[C@H](O)CO [Cellobiose, DGlcβ(1→4)DGlc]",Relative potency,[1],0.24
"OC[C@H]1O[C@H](OC[C@H]2O[C@H](OC[C@H]3O[C@H](OC[C@H]4O[C@H](OC[C@H]5OC(O)[C@H](O)[C@@H](O)[C@@H]5O)[C@H](O)[C@@H](O)[C@@H]4O)[C@H](O)[C@@H](O)[C@@H]3O[C@H]3O[C@H](CO)[C@@H](O)[C@H](O)[C@H]3O)[C@H](O)[C@@H](O)[C@@H]2O)[C@H](O)[C@@H](O)[C@@H]1O (stereo partly shown) [II/3, 43-a-v-glucosylisomaltopen taose]",Relative potency,[1],0.8
Pullulan,Precipitating power with CAL20 TEPC1035,[2],-
same,Precipitating power with J558,[3],-
same,Precipitation with serum 895,[4],precipitated poorly
OC[C@H]1O[C@H](OC[C@H]2O[C@H](O[C@H]3[C@H](O)[C@@H](O)C(O)O[C@@H]3CO)[C@H](O)[C@@H](O)[C@@H]2O)[C@H](O)[C@@H](O)[C@@H]1O (stereo partly shown) [Panose],Relative potency,[1],8.0
same,times more active than kojibiose,[1]; [9],> 42 times
same,times more potent than the tetrasaccharide DGlcα(1→6)DGlcα(1→4)DGlcα(1→4)DGlc,[1]; [9],3.3 times and 2.5 times
same,inhibition of precipitation of J558,[6],15%
same,inhibition of precipitation of UPC102,[7],15%
same,inhibition of precipitation of MOPC104E,[5]; up to 0.99 µmol,no inhibition
same,relative potency at 50% inhibition relative to nigerose as 1.0 on a molar basis,[8],0.105
maltotriose,Relative potency,[1],1.0
"OC[C@H]1O[C@H](O[C@H]2[C@H](O)[C@@H](O)[C@@H](OC[C@H]3OC(O)[C@H](O)[C@@H](O)[C@@H]3O)O[C@@H]2CO)[C@H](O)[C@@H](O)[C@@H]1O (stereo partly shown) [Isopanose, DGlcα(1→4)DGlcα(1→6)DGlc]",Relative potency,[1],0.35
maltoheptaose,Relative potency,[1],2.4
nigerohexa-heptaose,Relative potency,[1],0.33
OC[C@H]1OC(O)[C@H](O)[C@@H](O)[C@@H]1O (stereo partly shown) [Glucose],inhibition of precipitation,[1]; at 0.2 µmol,22%
same,inhibition of precipitation,[1]; at 0.92 µmol (Table II),22%
"OC[C@H]1O[C@H](O[C@H]2[C@H](O)[C@@H](CO)OC(O)[C@@H]2O)[C@H](O)[C@@H](O)[C@@H]1O (stereo partly shown) [Nigerose, nigerose]",Relative potency,[1],0.35
same,activity relative to methyl α-D-glucoside,[1]; [9],equally
same,inhibition of precipitation of MOPC104E,[5]; at 0.9 µmol,25%
OC[C@H]1O[C@H](OC[C@H]2O[C@H](O[C@H]3[C@H](O)[C@@H](CO)OC(O)[C@@H]3O)[C@H](O)[C@@H](O)[C@@H]2O)[C@H](O)[C@@H](O)[C@@H]1O (stereo partly shown) [DGlcα(1→6)DGlcα(1→3)DGlc],Relative potency,[1],1.6
"OC[C@H]1O[C@H](O[C@H]2[C@H](O)[C@@H](O)[C@@H](OC[C@H]3O[C@H](O[C@H]4[C@H](O)[C@@H](O)[C@@H](O[C@H]5[C@H](O)[C@@H](O)[C@@H](OC[C@H]6OC(O)[C@H](O)[C@@H](O)[C@@H]6O)O[C@@H]5CO)O[C@@H]4CO)[C@H](O)[C@@H](O)[C@@H]3O)O[C@@H]2CO)[C@H](O)[C@@H](O)[C@@H]1O (stereo partly shown) [Isopanosylα(1→4)isopanose, DGlcα(1→4)DGlcα(1→6)DGlcα(1→4)DGlcα(1→4)DGlcα(1→6)DGlc]",Relative potency,[1],1.0
same,times more potent than isopanose,[1]; [9],2.85 times
OC[C@H]1O[C@H](O[C@H]2[C@@H](OC[C@H]3OC(O)[C@H](O)[C@@H](O)[C@@H]3O)O[C@H](CO)[C@@H](O)[C@@H]2O)[C@H](O)[C@@H](O)[C@@H]1O (stereo partly shown) [DGlcα(1→2)DGlcα(1→6)DGlc],inhibition of precipitation,[1]; at 0.36 µmol,15%
OC[C@H]1O[C@H](O[C@@H]2[C@@H](O)[C@@H](OC[C@H]3OC(O)[C@H](O)[C@@H](O)[C@@H]3O)O[C@H](CO)[C@H]2O)[C@H](O)[C@@H](O)[C@@H]1O (stereo partly shown) [DGlcα(1→3)DGlcα(1→6)DGlc],inhibition of precipitation,[1]; at 0.16 µmol,40%
"OC[C@H]1O[C@H](OC[C@H]2O[C@H](OC[C@H]3O[C@H](OC[C@H]4O[C@H](OC[C@H]5O[C@H](OC[C@H]6O[C@H](OC[C@H]7OC(O)[C@H](O)[C@@H](O)[C@@H]7O)[C@H](O)[C@@H](O)[C@@H]6O)[C@H](O)[C@@H](O)[C@@H]5O)[C@H](O)[C@@H](O)[C@@H]4O)[C@H](O)[C@@H](O)[C@@H]3O)[C@H](O)[C@@H](O)[C@@H]2O)[C@H](O)[C@@H](O)[C@@H]1O (stereo partly shown) [Isomaltoheptaose, isomaltoheptaose]",inhibition of precipitation,[1]; at 0.4 µmol,35%
"OC[C@H]1O[C@H](O[C@@H]2[C@@H](O)[C@@H](O[C@@H]3[C@@H](O)[C@@H](O[C@@H]4[C@@H](O)[C@@H](O[C@H]5[C@H](O)[C@@H](CO)OC(O)[C@@H]5O)O[C@H](CO)[C@H]4O)O[C@H](CO)[C@H]3O)O[C@H](CO)[C@H]2O)[C@H](O)[C@@H](O)[C@@H]1O (stereo partly shown) [Nigeropentaose, nigeropentaose]",Relative potency,[1],0.29
